This note sets out measurements from patent US10233177B2, “TRPV1 vanilloid receptor antagonists with a bicyclic portion” (Serentrix LLC, priority 2010, dated 2019).

In this assay the target is TRPV1 (Rattus norvegicus (Rat), UniProt O35433). Kind of assay: Ca2+ fluorescence measurements in cultured rat dorsal root ganglia neurons (capsaicin-induced calcium uptake). It counts as cell-based. As to conditions: rat DRG neurons; for inhibition at 0.3 µM: DRG neuron.
The mark [1] stands for this setting: Table 1, formula IA-C, 300 nM against calcium uptake induced by 30 nM capsaicin, read-out: % inhibition at 300 nM.
The mark [2] stands for this setting: capsaicin-induced calcium uptake, read-out: inhibition of the calcium uptake.
[3] abbreviates: Table 1, against capsaicin-evoked [Ca2+]i mobilization, read-out: IC50.
Where [4] appears, read: 300 nM, read-out: abolition of capsaicin response at 300 nM.
Where [5] appears, read: Table 2, formula ID-E, 300 nM against calcium uptake induced by 30 nM capsaicin, read-out: % inhibition at 300 nM.
The mark [6] stands for this setting: Table 3, formula IF-H, 300 nM against calcium uptake induced by 30 nM capsaicin, read-out: % inhibition at 300 nM.

Like-named read-outs stand apart in the source and are kept apart here.

TRPV1, sequence (O35433 whole entry): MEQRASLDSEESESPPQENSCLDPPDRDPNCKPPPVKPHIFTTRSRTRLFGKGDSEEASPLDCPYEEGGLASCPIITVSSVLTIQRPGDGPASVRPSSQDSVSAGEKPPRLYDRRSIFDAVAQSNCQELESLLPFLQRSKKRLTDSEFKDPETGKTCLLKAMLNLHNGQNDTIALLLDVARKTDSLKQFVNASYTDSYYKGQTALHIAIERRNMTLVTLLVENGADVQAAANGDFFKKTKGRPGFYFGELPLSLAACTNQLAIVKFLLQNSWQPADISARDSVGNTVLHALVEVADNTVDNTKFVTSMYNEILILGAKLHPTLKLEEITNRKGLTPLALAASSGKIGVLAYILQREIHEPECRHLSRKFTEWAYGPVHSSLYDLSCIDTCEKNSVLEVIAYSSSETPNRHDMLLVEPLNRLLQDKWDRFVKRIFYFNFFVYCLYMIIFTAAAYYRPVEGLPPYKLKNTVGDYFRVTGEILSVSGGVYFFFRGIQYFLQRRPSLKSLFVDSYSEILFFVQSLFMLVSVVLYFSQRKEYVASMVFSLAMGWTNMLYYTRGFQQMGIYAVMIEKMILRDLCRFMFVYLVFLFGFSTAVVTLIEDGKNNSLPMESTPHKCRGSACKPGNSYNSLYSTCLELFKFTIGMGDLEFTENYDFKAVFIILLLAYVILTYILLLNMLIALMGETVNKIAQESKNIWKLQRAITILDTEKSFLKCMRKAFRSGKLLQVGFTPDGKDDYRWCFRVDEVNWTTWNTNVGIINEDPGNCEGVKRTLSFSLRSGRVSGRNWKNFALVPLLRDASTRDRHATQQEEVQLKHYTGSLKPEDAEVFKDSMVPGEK

For the compound `O=C(NCc1ccc(C(F)(F)F)nc1)Nc1cccc2[nH]c(=O)[nH]c12` [Example 66, 1-(2-oxo-1,3-dihydrobenzimidazol-4-yl)-3-[[6-(trifluoromethyl)-3-pyridyl]methyl]urea], the inhibition at 0.3 µM under setting [1] is 71%.
Regarding `CN(C)c1cc(Cl)ccc1CNC(=O)Nc1cccc2[nH]c(=O)[nH]c12` [Example 11, 1-(4-chloro-2-(dimethylamino)benzyl)-3-(2,3-dihydro-2-oxo-1H-benzo[d]imidazol-4-yl)urea], the inhibition at 0.3 µM under setting [1] amounted to 82% and the inhibition at 0.3 µM under setting [2] is > 80%. The IC50 under setting [3] came out at 12 nM.
Turning to `O=C1COc2c(cccc2NC(=O)NCc2ccc(C(F)(F)F)nc2N2CCCC2)N1` [Example 87, 1-(3-oxo-4H-1,4-benzoxazin-8-yl)-3-[[2-pyrrolidin-1-yl-6-(trifluoromethyl)-3-pyridyl]methyl]urea], the inhibition at 0.3 µM reads like this: under setting [4], ~100%; under setting [1], 100%; under setting [2], > 80%. Moreover, under setting [3], the IC50 was found to be 9 nM.
Regarding `CN(C)CCOc1cc(C(F)(F)F)ccc1CNC(=O)Nc1cccc2[nH]c(=O)[nH]c12` [Example 73, 1-[[2-(2-dimethylaminoethoxy)-4-(trifluoromethyl)phenyl]methyl]-3-(2-oxo-1,3-dihydrobenzimidazol-4-yl)urea], under setting [1], the inhibition at 0.3 µM worked out at 25%. The IC50 is, setting by setting: under setting [3], 1.8 nM; (read-out: IC50 against capsaicin-evoked [Ca2+]i mobilization) 0.1 nM.
As for `O=C(NCc1ccc(N2CCCC2)cc1)Nc1cccc2[nH]c(=O)[nH]c12` [Example 15, 1-(4-(pyrrolidin-1-yl)benzyl)-3-(2,3-dihydro-2-oxo-1H-benzo[d]imidazol-4-yl)urea], the inhibition at 0.3 µM under setting [1] was determined as 54%.
Same read-out and setting: to `O=C1COc2c(cccc2NC(=O)NCc2ccc(C(F)(F)F)cn2)N1` [Example 83, 1-(3-oxo-4H-1,4-benzoxazin-8-yl)-3-[[5-(trifluoromethyl)-2-pyridyl]methyl]urea] belongs 57%.
As for `O=C1COc2c(cccc2NC(=O)NCc2ccc(C(F)(F)F)o2)N1` [Example 76, 1-(3-oxo-4H-1,4-benzoxazin-8-yl)-3-[[5-(trifluoromethyl)-2-furyl]methyl]urea], the inhibition at 0.3 µM under setting [1] is 40%.
The same measure, in the same setting: to `Cc1ccc(CNC(=O)Nc2cccc3c2OCC(=O)N3)c(N2CCCC2)c1` [Example 90, 1-[(4-methyl-2-pyrrolidin-1-yl-phenyl)methyl]-3-(3-oxo-4H-1,4-benzoxazin-8-yl)urea] belongs 47%.
Regarding `O=C(Cc1ccc(C(F)(F)F)cc1)Nc1cccc2[nH]c(=O)oc12` [Example 57, 2-(4-(trifluoromethyl)phenyl)-N-(2,3-dihydro-2-oxobenzo[d]oxazol-7-yl)acetamide], the inhibition at 0.3 µM under setting [5] worked out at 7%.
For the compound `O=C(NCc1ccc(F)cc1)Nc1cccc2[nH]c(=O)[nH]c12` [Example 9, 1-(4-fluorobenzyl)-3-(2,3-dihydro-2-oxo-1H-benzo[d]imidazol-4-yl)urea], under setting [1], the inhibition at 0.3 µM is 18%.
Consider `O=C(Cc1ccc(C(F)(F)F)cc1)Nc1cccc2[nH]c(=O)[nH]c12` [Example 55, 2-(4-(trifluoromethyl)phenyl)-N-(2,3-dihydro-2-oxo-1H-benzo[d]imidazol-4-yl)acetamide], for which, under setting [5], the inhibition at 0.3 µM was 10%.
For the compound `O=C(NCc1ccc(C(F)(F)F)cn1)Nc1cccc2[nH]c(=O)[nH]c12` [Example 41, 1-(2-oxo-1,3-dihydrobenzimidazol-4-yl)-3-[[5-(trifluoromethyl)-2-pyridyl]methyl]urea], the inhibition at 0.3 µM reads like this: under setting [1], 88%; under setting [2], > 80%.
`O=C(NCc1ccc(C(F)(F)F)cc1N1CCOCC1)c1cccc2oc(=O)[nH]c12` [Example 61, N-(4-(trifluoromethyl)-2-morpholinobenzyl)-2,3-dihydro-2-oxobenzo[d]oxazole-4-carboxamide]: the inhibition at 0.3 µM under setting [6] came to 15%.
Regarding `O=C(NCc1ccc(C(F)(F)F)cc1N1CCOCC1)Nc1cccc2[nH]c(=O)[nH]c12` [Example 7, 1-(4-(trifluoromethyl)-2-(4-morpholino)benzyl)-3-(2,3-dihydro-2-oxo-1H-benzo[d]imidazol-4-yl)urea], the inhibition at 0.3 µM under setting [1] amounted to 33%.
`O=C1COc2c(cccc2NC(=O)NCc2ccc(Cl)nc2)N1` [Example 54, 1-((6-chloropyridin-3-yl)methyl)-3-(3,4-dihydro-3-oxo-2H-benzo[b][1,4]oxazin-8-yl)urea]: the inhibition at 0.3 µM under setting [1] came out at 55%.
For the compound `O=C(NCc1ccc(C(F)(F)F)cc1F)Nc1cccc2oc(=O)[nH]c12` [Example 25, 1-(2-fluoro-4-(trifluoromethyl)benzyl)-3-(2,3-dihydro-2-oxobenzo[d]oxazol-4-yl)urea], the inhibition at 0.3 µM under setting [1] was 40%.
As for `Cc1ccc(CNC(=O)Nc2cccc3[nH]c(=O)[nH]c23)cc1` [Example 17, 1-(4-methylbenzyl)-3-(2,3-dihydro-2-oxo-1H-benzo[d]imidazol-4-yl)urea], the inhibition at 0.3 µM under setting [1] was 44%.
On to `O=C(NCc1ccncc1)Nc1cccc2[nH]c(=O)[nH]c12` [Example 20, 1-(2,3-dihydro-2-oxo-1H-benzo[d]imidazol-4-yl)-3-((pyridin-4-yl)methyl)urea], for which, under setting [1], the inhibition at 0.3 µM amounted to 18%.
On to `O=C(Cc1ccc(C(F)(F)F)cc1)Nc1cccc2oc(=O)[nH]c12` [Example 56, 2-(4-(trifluoromethyl)phenyl)-N-(2,3-dihydro-2-oxobenzo[d]oxazol-4-yl)acetamide], for which the inhibition at 0.3 µM under setting [5] worked out at 31%.
Turning to `O=C(NCc1ccc(Cl)nc1)Nc1cccc2[nH]c(=O)[nH]c12` [Example 21, 1-((6-chloropyridin-3-yl)methyl)-3-(2,3-dihydro-2-oxo-1H-benzo[d]imidazol-4-yl)urea], the inhibition at 0.3 µM under setting [1] is 79%.
`CC(C)Oc1cc(C(F)(F)F)ccc1CNC(=O)Nc1cccc2c1OCC(=O)N2` [Example 81, 1-[[2-isopropoxy-4-(trifluoromethyl)phenyl]methyl]-3-(3-oxo-4H-1,4-benzoxazin-8-yl)urea]: the inhibition at 0.3 µM is ~100% under setting [4], 100% under setting [1] and > 80% under setting [2].
Consider `O=C1COc2cccc(NC(=O)NCc3ccc(C(F)(F)F)cc3)c2N1` [Example 42, 1-(4-(trifluoromethyl)benzyl)-3-(3,4-dihydro-3-oxo-2H-benzo[b][1,4]oxazin-5-yl)urea], for which, under setting [1], the inhibition at 0.3 µM is 30%.
Turning to `CN(C)c1ccc(CNC(=O)Nc2cccc3[nH]c(=O)[nH]c23)cc1` [Example 14, 1-(4-(dimethylamino)benzyl)-3-(2,3-dihydro-2-oxo-1H-benzo[d]imidazol-4-yl)urea], the inhibition at 0.3 µM under setting [1] was found to be 32%.
As to `CN(C)c1nc(C(F)(F)F)ccc1CNC(=O)Nc1cccc2[nH]c(=O)[nH]c12` [Example 69, 1-[[2-dimethylamino-6-(trifluoromethyl)-3-pyridyl]methyl]-3-(2-oxo-1,3-dihydrobenzimidazol-4-yl)urea], the inhibition at 0.3 µM was 80% under setting [1] and > 80% under setting [2]. For the same compound, the 50% inhibitory concentration (IC50) under setting [3] is 92 nM.
As to `Cc1ccc(CNC(=O)Nc2cccc3c2OCC(=O)N3)c(N2CCCCC2)c1` [Example 53, 1-(4-methyl-2-(piperidin-1-yl)benzyl)-3-(3,4-dihydro-3-oxo-2H-benzo[b][1,4]oxazin-8-yl)urea], the inhibition at 0.3 µM by setting is: under setting [4], ~100%; under setting [1], 90%; under setting [2], > 80%.
On to `O=C(NCc1ccc(N2CCCCC2)cc1)Nc1cccc2[nH]c(=O)[nH]c12` [Example 16, 1-(4-(piperidin-1-yl)benzyl)-3-(2,3-dihydro-2-oxo-1H-benzo[d]imidazol-4-yl)urea], for which the inhibition at 0.3 µM was 86% under setting [1] and > 80% under setting [2].
Take `O=C1COc2c(cccc2NC(=O)NCc2ccc(C(F)(F)F)cc2)N1` [Example 45, 1-(4-(trifluoromethyl)benzyl)-3-(3,4-dihydro-3-oxo-2H-benzo[b][1,4]oxazin-8-yl)urea]: the inhibition at 0.3 µM was ~100% under setting [4], 100% under setting [1] and > 80% under setting [2].
In the case of `O=C(NCc1ccc(C(F)(F)F)cc1N1CCOCC1)Nc1cccc2oc(=O)[nH]c12` [Example 32, 1-(4-(trifluoromethyl)-2-(4-morpholino)benzyl)-3-(2,3-dihydro-2-oxobenzo[d]oxazol-4-yl)urea], the inhibition at 0.3 µM by setting is: under setting [1], 93%; under setting [2], > 80%.
For the compound `Cc1ccc(CNC(=O)Nc2cccc3c2OCC(=O)N3)c(OC(C)C)c1` [Example 84, 1-[(2-isopropoxy-4-methyl-phenyl)methyl]-3-(3-oxo-4H-1,4-benzoxazin-8-yl)urea], under setting [1], the inhibition at 0.3 µM was 61%.
Turning to `O=C1COc2c(cccc2C(=O)NCc2ccc(C(F)(F)F)cc2N2CCCCC2)N1` [Example 64, N-(4-(trifluoromethyl)-2-(piperidin-1-yl)benzyl)-3,4-dihydro-3-oxo-2H-benzo[b][1,4]oxazine-8-carboxamide], the inhibition at 0.3 µM under setting [6] turned out to be 65%.
As for `O=C(NCc1ccc(C(F)(F)F)cc1)c1cccc2oc(=O)[nH]c12` [Example 59, N-(4-(trifluoromethyl)benzyl)-2,3-dihydro-2-oxobenzo[d]oxazole-4-carboxamide], the inhibition at 0.3 µM under setting [6] was determined as 5%.
Consider `O=C1COc2c(cccc2NC(=O)NCc2ccc(C(F)(F)F)cc2-n2ccnc2)N1` [Example 88, 1-[[2-(imidazol-1-yl)-4-(trifluoromethyl)phenyl]methyl]-3-(3-oxo-4H-1,4-benzoxazin-8-yl)urea], for which the inhibition at 0.3 µM under setting [1] worked out at 75%.
As to `O=C(NCc1ccc(C(F)(F)F)cc1N1CCCCC1)Nc1cccc2[nH]c(=O)oc12` [Example 36, 1-(4-(trifluoromethyl)-2-(piperidin-1-yl)benzyl)-3-(2,3-dihydro-2-oxobenzo[d]oxazol-7-yl)urea], the inhibition at 0.3 µM runs as follows: under setting [4], ~100%; under setting [1], 100%; under setting [2], > 80%.
